The values below come from patent publication US20220009920A1 (GB005, Inc., priority 2020, published 2022).

Holding throughout (assay): Large panel kinase profiling
Common to all, as to type: biochemical
Holding throughout (conditions): 1 μM test article, 1 mM ATP

One assay deals with T1, CDK6/D1 (Homo sapiens, UniProt Q00534).
T1 construct: AssayQuant Technologies, Inc. (ran the panel)
The gist of the method:
(§1)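 With ATP fixed at 1 mM, each kinase was exposed to 1 μM compound in a PhosphoSens CSox-Sensor reaction. Sealed plates were incubated at 30° C. and read in kinetic mode.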

The next assay concerns the target T2, HIPK4 (Homo sapiens, UniProt Q8NE63).
T2 construct: AssayQuant Technologies, Inc. (service provider)
T2 sequence (Q8NE63 1-616): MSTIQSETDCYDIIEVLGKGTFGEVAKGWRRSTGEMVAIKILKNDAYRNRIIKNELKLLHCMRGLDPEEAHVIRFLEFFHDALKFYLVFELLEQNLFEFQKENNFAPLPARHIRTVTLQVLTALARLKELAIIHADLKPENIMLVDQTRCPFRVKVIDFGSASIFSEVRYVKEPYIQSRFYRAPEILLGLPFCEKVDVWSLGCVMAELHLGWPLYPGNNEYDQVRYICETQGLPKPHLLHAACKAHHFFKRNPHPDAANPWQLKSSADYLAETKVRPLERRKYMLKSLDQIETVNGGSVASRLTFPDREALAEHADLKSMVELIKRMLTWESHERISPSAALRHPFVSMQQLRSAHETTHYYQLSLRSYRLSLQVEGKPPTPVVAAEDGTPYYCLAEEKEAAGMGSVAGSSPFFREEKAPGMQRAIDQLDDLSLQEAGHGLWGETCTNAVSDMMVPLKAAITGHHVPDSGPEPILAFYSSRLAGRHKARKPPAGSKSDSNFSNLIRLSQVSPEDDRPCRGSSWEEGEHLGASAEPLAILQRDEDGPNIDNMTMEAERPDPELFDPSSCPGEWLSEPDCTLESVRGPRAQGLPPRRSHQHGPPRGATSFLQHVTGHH
A digest of the protocol: as §1

The next assay concerns the target T3, LATS1 (Homo sapiens, UniProt O95835).
T3 sequence (O95835 1-1130): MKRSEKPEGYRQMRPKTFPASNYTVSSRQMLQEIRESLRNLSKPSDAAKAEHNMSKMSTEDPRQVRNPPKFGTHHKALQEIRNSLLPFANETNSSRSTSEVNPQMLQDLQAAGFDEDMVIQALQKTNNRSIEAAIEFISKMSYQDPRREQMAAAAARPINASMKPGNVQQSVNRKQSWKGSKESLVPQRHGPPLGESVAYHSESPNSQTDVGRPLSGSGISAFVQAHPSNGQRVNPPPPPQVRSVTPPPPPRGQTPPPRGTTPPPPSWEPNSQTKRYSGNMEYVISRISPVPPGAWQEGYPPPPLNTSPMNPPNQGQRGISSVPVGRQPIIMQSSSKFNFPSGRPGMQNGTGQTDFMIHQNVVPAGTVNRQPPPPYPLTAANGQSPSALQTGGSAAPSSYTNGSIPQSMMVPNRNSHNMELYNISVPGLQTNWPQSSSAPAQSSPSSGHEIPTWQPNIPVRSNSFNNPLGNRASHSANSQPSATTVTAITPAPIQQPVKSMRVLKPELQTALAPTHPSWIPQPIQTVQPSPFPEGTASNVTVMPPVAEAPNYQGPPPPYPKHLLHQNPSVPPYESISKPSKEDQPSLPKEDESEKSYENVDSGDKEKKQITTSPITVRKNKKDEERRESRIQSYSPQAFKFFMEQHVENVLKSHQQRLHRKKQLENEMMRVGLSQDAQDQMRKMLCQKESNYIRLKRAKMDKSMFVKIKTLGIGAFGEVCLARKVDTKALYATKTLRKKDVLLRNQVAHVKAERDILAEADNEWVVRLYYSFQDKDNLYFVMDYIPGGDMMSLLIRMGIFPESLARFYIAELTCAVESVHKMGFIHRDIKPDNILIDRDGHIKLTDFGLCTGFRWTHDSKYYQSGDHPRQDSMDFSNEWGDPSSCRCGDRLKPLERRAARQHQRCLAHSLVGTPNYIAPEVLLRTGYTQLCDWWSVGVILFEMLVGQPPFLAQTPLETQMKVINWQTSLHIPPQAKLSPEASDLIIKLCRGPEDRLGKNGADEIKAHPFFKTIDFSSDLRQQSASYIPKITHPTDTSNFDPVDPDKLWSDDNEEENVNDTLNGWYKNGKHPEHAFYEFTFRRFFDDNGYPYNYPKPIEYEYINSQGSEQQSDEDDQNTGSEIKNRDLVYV
The gist of the method: as §1

In another assay the target is PASK (Homo sapiens, UniProt Q96RG2). A digest of the protocol: as §1
Another assay deals with T4, PHKG2 (Homo sapiens, UniProt P15735).
T4 sequence (P15735 1-406): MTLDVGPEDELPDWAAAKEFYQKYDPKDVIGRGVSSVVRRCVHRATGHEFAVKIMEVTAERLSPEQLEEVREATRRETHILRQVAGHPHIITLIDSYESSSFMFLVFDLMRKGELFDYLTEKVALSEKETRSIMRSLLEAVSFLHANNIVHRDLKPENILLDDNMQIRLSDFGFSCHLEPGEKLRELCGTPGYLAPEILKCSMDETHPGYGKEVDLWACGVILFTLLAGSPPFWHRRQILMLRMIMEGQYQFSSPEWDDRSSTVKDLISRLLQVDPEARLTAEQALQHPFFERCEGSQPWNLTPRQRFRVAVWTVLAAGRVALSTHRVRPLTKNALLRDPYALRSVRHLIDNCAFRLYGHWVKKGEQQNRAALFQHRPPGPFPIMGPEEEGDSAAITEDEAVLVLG
The gist of the method:
as §1

In the next assay the target is T5, TEK/TIE2 (Homo sapiens, UniProt Q02763).
T5 construct: AssayQuant Technologies, Inc. (contract laboratory that ran the panel)
The gist of the method: as §1

T5 sequence (Q02763 23-1124): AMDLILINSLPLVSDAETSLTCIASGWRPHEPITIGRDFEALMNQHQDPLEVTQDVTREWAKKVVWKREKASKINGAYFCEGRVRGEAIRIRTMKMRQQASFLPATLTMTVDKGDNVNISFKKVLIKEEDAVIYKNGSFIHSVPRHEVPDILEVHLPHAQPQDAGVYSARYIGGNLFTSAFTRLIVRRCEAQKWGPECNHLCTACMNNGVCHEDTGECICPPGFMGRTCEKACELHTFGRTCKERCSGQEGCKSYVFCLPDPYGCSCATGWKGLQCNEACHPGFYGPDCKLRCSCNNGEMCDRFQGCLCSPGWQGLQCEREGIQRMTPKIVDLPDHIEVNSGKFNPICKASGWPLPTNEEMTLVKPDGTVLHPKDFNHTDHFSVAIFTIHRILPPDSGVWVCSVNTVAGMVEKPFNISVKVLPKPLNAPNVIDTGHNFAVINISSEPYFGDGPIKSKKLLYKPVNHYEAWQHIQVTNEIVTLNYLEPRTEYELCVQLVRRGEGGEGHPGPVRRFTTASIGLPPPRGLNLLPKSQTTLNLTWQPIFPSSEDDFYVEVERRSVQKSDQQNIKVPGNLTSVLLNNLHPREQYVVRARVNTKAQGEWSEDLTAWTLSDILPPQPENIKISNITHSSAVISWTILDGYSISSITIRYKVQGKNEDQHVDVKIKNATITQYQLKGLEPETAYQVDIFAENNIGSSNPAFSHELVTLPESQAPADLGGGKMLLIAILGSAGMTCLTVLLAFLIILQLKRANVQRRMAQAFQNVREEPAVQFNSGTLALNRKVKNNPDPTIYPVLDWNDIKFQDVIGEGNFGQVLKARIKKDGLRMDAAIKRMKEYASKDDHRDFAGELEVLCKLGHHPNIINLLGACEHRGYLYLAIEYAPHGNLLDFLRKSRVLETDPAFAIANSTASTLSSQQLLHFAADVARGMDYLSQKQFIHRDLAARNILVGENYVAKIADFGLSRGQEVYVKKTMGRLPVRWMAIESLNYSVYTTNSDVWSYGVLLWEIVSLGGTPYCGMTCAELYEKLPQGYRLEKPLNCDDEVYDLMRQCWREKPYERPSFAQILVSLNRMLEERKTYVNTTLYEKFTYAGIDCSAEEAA
T1 sequence (Q00534 whole entry, species assumed): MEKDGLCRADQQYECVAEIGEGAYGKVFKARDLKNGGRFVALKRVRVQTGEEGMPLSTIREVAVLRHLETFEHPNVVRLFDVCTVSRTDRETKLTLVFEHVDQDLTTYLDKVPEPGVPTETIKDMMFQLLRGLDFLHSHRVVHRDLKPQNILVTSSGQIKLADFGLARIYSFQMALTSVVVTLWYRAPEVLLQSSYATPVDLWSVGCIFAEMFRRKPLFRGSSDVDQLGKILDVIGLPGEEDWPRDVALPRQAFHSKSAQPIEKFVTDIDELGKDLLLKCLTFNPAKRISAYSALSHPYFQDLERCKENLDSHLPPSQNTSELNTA
T1 sequence (P24385 whole entry partner, species assumed): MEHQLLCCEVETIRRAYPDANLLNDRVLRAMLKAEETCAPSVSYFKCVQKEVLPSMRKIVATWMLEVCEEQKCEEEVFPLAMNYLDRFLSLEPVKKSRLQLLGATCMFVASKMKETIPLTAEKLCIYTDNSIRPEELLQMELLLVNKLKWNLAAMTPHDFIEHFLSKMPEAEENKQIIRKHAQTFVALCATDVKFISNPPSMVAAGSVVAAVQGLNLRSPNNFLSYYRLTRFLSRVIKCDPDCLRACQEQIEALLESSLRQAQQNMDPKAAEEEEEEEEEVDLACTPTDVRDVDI
Sequence of PASK (Q96RG2 whole entry): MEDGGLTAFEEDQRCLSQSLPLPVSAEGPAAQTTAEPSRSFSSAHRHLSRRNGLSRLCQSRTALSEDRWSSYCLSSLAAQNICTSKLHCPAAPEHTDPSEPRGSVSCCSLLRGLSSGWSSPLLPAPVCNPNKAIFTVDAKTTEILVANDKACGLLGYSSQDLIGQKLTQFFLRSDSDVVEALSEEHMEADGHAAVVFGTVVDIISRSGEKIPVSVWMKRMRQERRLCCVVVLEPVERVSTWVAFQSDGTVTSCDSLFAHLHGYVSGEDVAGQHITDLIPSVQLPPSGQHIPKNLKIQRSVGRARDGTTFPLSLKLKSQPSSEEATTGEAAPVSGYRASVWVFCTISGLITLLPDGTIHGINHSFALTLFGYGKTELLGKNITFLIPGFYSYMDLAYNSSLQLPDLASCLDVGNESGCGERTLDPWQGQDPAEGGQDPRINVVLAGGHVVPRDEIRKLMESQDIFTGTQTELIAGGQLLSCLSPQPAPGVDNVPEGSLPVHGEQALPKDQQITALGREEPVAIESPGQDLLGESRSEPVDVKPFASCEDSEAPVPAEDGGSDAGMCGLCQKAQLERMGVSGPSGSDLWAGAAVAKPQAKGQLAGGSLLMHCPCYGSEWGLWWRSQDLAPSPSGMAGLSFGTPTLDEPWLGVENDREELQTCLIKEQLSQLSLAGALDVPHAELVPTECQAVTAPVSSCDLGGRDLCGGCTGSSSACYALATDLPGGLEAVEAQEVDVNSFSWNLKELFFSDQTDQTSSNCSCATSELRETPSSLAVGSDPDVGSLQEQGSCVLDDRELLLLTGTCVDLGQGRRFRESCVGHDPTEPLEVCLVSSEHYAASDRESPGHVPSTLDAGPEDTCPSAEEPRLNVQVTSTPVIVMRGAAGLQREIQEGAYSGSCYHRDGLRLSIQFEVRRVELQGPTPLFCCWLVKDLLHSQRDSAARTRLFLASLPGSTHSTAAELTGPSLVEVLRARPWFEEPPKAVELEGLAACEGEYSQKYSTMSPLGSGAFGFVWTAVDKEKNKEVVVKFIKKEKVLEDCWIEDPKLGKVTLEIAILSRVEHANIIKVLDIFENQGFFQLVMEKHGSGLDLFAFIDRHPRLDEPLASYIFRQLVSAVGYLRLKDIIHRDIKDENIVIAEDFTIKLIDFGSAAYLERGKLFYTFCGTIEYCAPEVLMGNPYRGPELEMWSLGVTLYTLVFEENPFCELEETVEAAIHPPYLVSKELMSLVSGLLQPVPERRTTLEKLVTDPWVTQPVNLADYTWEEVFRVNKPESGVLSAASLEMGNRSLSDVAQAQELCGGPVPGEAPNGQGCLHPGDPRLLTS

`C=CC(=O)N1CCCC(c2c(F)cc(C(N)=O)c3[nH]c4c(c23)CCCCC4)C1` (single isomer, unassigned) [Compound 5-6]: the inhibition at 1 µM on CDK6/D1 was -5.8%; against HIPK4, -1.6%; against LATS1, -24.7%; against PASK, 1.8%; against PHKG2, 10.1%; at TEK/TIE2 it was -11.2%.
For the molecule `C=CC(=O)N1CCC[C@@H](c2c(F)cc(C(N)=O)c3[nH]c4c(c23)CC2(CC4)CC2)C1` [Compound 6-2, (S)-5-(1-acryloylpiperidin-3-yl)-6-fluoro-1,2,4,9-tetrahydrospiro[carbazole-3,1′-cyclopropane]-8-carboxamide], the inhibition at 1 µM against CDK6/D1 is -4.3%; against HIPK4 it was -1.9%; against LATS1 it was 10.1%; at PASK, -8%; against PHKG2, 64.5%; on TEK/TIE2 it was 4.6%.
Take `C=CC(=O)N1CCC[C@@H](c2c(F)cc(C(N)=O)c3[nH]c4c(c23)CCC4)C1` [Compound 10-2, (S)-8-(1-acryloylpiperidin-3-yl)-7-fluoro-1,2,3,4-tetrahydrocyclo-penta[b]indole-5-carboxamide]: the inhibition at 1 µM was 12.8% against CDK6/D1; 24.3% at HIPK4; 22.9% on LATS1; -8.5% against PASK; 75% against PHKG2; -15.2% against TEK/TIE2.

A word on the inhibition: it is the drop in the measured response relative to a control, in per cent.
